Experiments:
LCA1 (YOR175c) = target: T1, LCA1 (YOR175c) (Saccharomyces cerevisiae, UniProt Q08548); assay: In vitro assay of LPCAT activity: substrate specificity and kinetics of LCA1 (YOR175c); type: biochemical; details: for Rate of acylation as % of the activity registered for LPC: [^14C] palmitoyl-CoA as acyl donor, 50 μM lysophospholipid, microsomes of lca1Δ expressing YOR175c
T1 construct: Saccharomyces cerevisiae YOR175c ORF was PCR-amplified; made in house; host or cells: S. cerevisiae YOR175c deletion strain Y02431 (lca1Δ), pYES2.1, galactose induction; microsomal fraction
T1 sequence (Q08548 1-619): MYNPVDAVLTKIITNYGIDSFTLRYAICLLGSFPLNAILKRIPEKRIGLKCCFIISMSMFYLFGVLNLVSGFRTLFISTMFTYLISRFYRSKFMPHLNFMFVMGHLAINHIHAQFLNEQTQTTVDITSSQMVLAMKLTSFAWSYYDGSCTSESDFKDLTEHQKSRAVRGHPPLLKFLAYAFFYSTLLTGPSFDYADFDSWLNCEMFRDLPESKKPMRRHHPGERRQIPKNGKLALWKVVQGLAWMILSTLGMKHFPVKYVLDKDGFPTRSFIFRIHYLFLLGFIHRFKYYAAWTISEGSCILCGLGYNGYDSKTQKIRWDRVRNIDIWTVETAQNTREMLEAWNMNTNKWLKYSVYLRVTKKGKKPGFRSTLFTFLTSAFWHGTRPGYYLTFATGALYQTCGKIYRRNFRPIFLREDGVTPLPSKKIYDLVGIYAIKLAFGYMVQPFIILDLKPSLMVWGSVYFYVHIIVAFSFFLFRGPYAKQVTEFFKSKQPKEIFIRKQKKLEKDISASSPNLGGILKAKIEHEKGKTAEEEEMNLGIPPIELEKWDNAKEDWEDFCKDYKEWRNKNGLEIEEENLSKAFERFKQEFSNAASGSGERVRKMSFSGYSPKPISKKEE
Method: FIG. 11 is a graph showing the substrate specificity of LCA1. The assays were performed with 3 μg microsomal protein from lca1Δ harboring an empty vector (V0) and lca1Δ expressing LCA1. The reaction contained 112.5 μm [^14C] palmitoyl-CoA (5.5 nCi/nmol) and 50 μM lysophospholipid substrate (LPA, LPC, LPE, LPG, LPI, and LPS). Reaction was allowed for two minutes with 100 rpm shaking. The results are presented as a mean of three assays.
(§1) Microsomal preparation: Yeast strains were first grown in 15 ml of SC-Leu-His-Ura medium containing 2% glucose. Protein expression induction was carried out as described in Invitrogen manufacturer manual for yeast expression vector pYES2.1. After 24 hours of growth in SC+2% galactose+1% raffinose induction conditions, the cells were washed, first with distilled water and then with wall-breaking buffer (50 mM Tris-HCl, 1 mM EDTA, 0.6 M sorbitol, pH 7.4, 1 mM DTT). After centrifugation at 4,000 rpm (Eppendorf Centrifuge 5145C), the cells were resuspended in 1 ml wall-breaking buffer with 10 μl yeast protease cocktail (Sigma), and shaken vigorously in the presence of acid-washed glass beads (diameter 0.5 mm). The resultant homogenate was centrifuged at 12,000 rpm for ten minutes at 4° C. The decanted supernatant was further centrifuged at 100,000×g for 90-120 minutes at 4° C. The supernatant was discarded, and the pellet was suspended in homogenization buffer containing 20% glycerol and frozen at −80° C. until use. Protein concentration was measured using Bio-Rad Protein Assay Kit for final enzyme activity calculation.
(§2) In Vitro Assay of LPCAT activity: LPCAT substrate specificity was determined by measuring incorporation of [^14C] lysophosphatidylcholine or [^14C] palmitoyl-CoA into phosphatidylcholine. All assays were performed at least twice. For lysophospholipid substrate specificity assessment, 400 μl HEPES buffer contained 3 μg microsomal protein, 50 μM of lysophospholipid substrates and 112.5 μM [^14C] palmitoyl-CoA (5.5 nCi/nmol). For acyl-CoA substrate selectivity analysis, 400 μl HEPES reaction buffer (pH7.4, 0.1 M) contained 3 μg microsomal protein, 50 μM acyl-CoA and 112.5 μM [^14C] […] (1.35 nCi/nmol). Reaction was allowed for 2 minutes at 30° C. with 100 rpm shaking. The reaction products were extracted with chloroform/methanol (2/1, v/v) and separated with Merck silica G60 TLC plates. Spots corresponding to different phospholipid species products were scraped off and ^14C incorporation were scintillation counted. Different concentrations of ZnCl2 were added in to reactions for Zn^2+ inhibitory effect assay.

[1] = test system: lca1Δ yeast mutant (Y02431); type: cell-based, Saccharomyces cerevisiae
Method: (§3) Cells were frown first in SC-URA+2% glucose media overnight then in protein expression induction media for six hours. Cultures were diluted to OD600 value of OD600 0.5, 1, 2, 3, respectively, from which 5 μl were inoculated (from left to right) onto YPD plate containing lyso-PAF or lyso-PC. The plates were incubated at 28° C. for 36 hours.
(§4) Lyso-PAF sensitivity: Yeast strains Y02431 over-expressing LCA1 or harboring empty vector were first grown in 15 ml of SC-ura medium containing 2% glucose then transferred to SC-ura+2% galactose and 1% raffinose. After 12 hours LCA1 expression induction, the culture was diluted to correspond to OD600 value of 0.5, 1, 2, 3, 4. Five μl of each dilution was spotted to a YPD plate supplemented with varying concentrations of Lyso-PAF. The plates were incubated at 28° C. for two days.
Lyso-PAF sensitivity: Yeast strains BY02431 carrying pYES 2.1-AtLPCATs or the empty vector were first grown in 15 ml of SC-Leu-His-ura medium containing 2% glucose. Yeast transformant strains of AtLPCATs were first grown in YPD overnight. Protein expression induction were carried out by protocol described in Invitrogen manufacturer manual for yeast expression vector pYES2.1. After 12 hours induction, 5 μl cultures were inoculated onto YPD plate with 10 μg/ml lysoPAF. The plates were incubated at 28° C. for two days. The final lysoPAF is 10/ml.

[2] = test system: parental (WT) yeast strain; assay: Lyso-PAF and lyso-PC sensitivity plate test, parental strain; type: cell-based, Saccharomyces cerevisiae; details: plate assay
Method: as §3, §4

LCA1 = target: T2, LCA1 (Saccharomyces cerevisiae, UniProt Q08548); assay: Zn^2+ / Mg^2+ effect on LPCAT activity of LCA1 (in vitro assay, microsomes of lca1Δ over-expressing LCA1); type: biochemical; details: concentration ranging from 5 to 40 μM (data not shown)
T2 construct: Saccharomyces cerevisiae YOR175c ORF was PCR-amplified; made in house; host or cells: S. cerevisiae YOR175c deletion strain Y02431 (lca1Δ), pYES2.1, galactose induction; microsomal fraction
T2 sequence (Q08548 1-619): T1 sequence (Q08548 1-619)
Method: as §1, §2
Results are expressed as means±S.D. The lca1Δ over-expressing LCA1 was used to assess Zn^2+ effect. The reactions contained 5.6 μM palmitoyl-LPC (1.35 nCi/nmol), 1.5 μg microsomal proteins, 0.1 M HEPES (pH 7.4), 11.25 μM stearyl-CoA and indicated concentration of ZnCl2. The reaction was stopped after two minutes by adding 2 ml of chloroform/methanol solution (2:1).

lysophosphatidylcholine [LPC]
Acyltransferase activity among lysophospholipid substrates (LCA1 (YOR175c); [^14C] palmitoyl-CoA, LPA, LPC, LPE, LPG, LPI, LPS compared): highest activity | Level tolerated ([1]; lca1Δ, plate assay): up to 20 μg/ml | Level tolerated [2]: up to 20 μg/ml

[Mg+2] [Mg^2+]
Effect on LPCAT activity of LCA1 (LCA1): did not detect significant effect

lysophosphatidylglycerol [LPG]
Rate of acylation as % of the activity registered for LPC (LCA1 (YOR175c)): approximately 60%

lysophosphatidylethanolamine [LPE]
Rate of acylation as % of the activity registered for LPC (LCA1 (YOR175c)): ~20%

1-O-alkyl-sn-glycero-3-phosphocholine [lyso-PAF]
Growth of lpcat yeast mutant ([1]; 10 ug/ml on YPD plate): incapable of growth | Concentration above which hypersensitivity is displayed ([1]; lca1Δ mutant, plate assay): above 5 μg/ml

CCCCCCCCCCCCCCCC(=O)OC[C@@H](O)COP(=O)([O-])OCC[N+](C)(C)C [LPC (16:0), palmitic (16:0)-LPC]
Concentration above which inhibitory effects on LPCAT activity are exerted (LCA1 (YOR175c); data not shown): above 75 μM

B1: LCA1: yeast (S. cerevisiae) LPC acyltransferase encoded by YOR175c, SEQ ID NO:2 (protein, listed as Saccharomyces cerevisiae)
chain: T1 sequence (Q08548 1-619)
Vmax (LCA1 (YOR175c); Lineweaver-Burk double-reciprocal plot): 524 pmol/min/μg protein | Km (LCA1 (YOR175c); Lineweaver-Burk double-reciprocal plot, read-out: apparent Km for acyl-CoA): 0.89 ± 0.25 µM | Increase in lyso-PAF acyltransferase activity on over-expression (LCA1 (YOR175c); lyso-PAF as acyl acceptor): 86.3 fold

Reference: patent publication US9228175B2, “Genes encoding a novel type of lysophophatidylcholine acyltransferases and their use to increase triacylglycerol production and/or modify fatty acid composition” (National Research Counsel of Canada, priority 2006, dated 2016)
